Measured values reported in US8012711B2, “Methods of screening for compounds that reduce microbial resistance to fluoroquinolones” (priority 1999, dated 2011).
≈ marks a conversion by molar mass, not a printed value. Where two headings read alike, the source gives them in different places.

What was measured:
[1] = system: Escherichia coli AG100, AG112 and derived mutants bearing ΔacrAB; settings: all strains, energized cells
[2] = system: Escherichia coli AG100, AG112 and derived fluoroquinolone-resistant mutants with ΔacrAB; test: MIC by broth microdilution, AcrAB-deleted strains; type: cell-based; settings: Escherichia coli
Procedure: (§1) Susceptibility testing. MICs of selected antimicrobial agents were determined by a standard broth microdilution procedure with cation-adjusted Mueller-Hinton broth (Becton Dickinson, Cockeysville, Md.) and an inoculum of 5×10^5 CFU/ml according to NCCLS performance and interpretive guidelines (NCCLS. 1997. Methods for dilution antimicrobial susceptibility. Tests for bacteria that grow aerobically—Fourth Edition; Approved Standard. NCCLS document M7-A4 (ISBN 1-56238-309-4). NCCLS, 940 West Valley Road, Suite 1400, Wayne, Pa. 19087). Antimicrobial agents on the commercially available microtiter plates (Merlin Diagnostics GmbH, Bornheim, Germany) included the FQs ciprofloxacin (CIP), enoxacin, fleroxacin, nor-flo-xacin, ofloxacin (OFL), pefloxacin, sparfloxacin (SPX), and trovafloxacin (TVA). They also included tetracycline (TET), chloramphenicol (CML), trimethoprim (TMP), cefoxitin (CFOX), cefaclor, cefixim and loracarbef. MICs of bile salts were determined by a broth macrodilution procedure: sodium cholate and sodium deoxycholate were serially diluted twofold in LB broth and tubes inoculated at 5×10^5 CFU/ml. MICs of both antibiotics and bile salts were determined twice in independent experiments with reproducible results.
P1 transduction. […] DNA sequencing.

[3] = system: Escherichia coli K-12 AG100, AG112 and derived fluoroquinolone-resistant mutants (wild-type acrAB); settings: whole energized cells
[4] = system: Escherichia coli K-12 AG100, its Mar mutant AG112 and derived fluoroquinolone-resistant mutants (acrAB+); test: MIC by broth microdilution, acrAB+ strains; type: cell-based; settings: Escherichia coli
Procedure: Selection of fluoroquinolone-resistant mutants. 1-AG100, 2°-AG100, 3*-AG100, 4*-AG100 and 1′-AG112, 2′-AG112, 3′-AG112 were sequential step mutants derived from AG 100 and AG112, respectively, on solid media. For each step, about 10^11 cells of an overnight culture were plated on several LB agar plates supplemented with increasing concentrations of OFL. Single colonies were further purified on OFL-supplemented agar plates. Mutant 2°-AG100 came out of one series, while mutants 3*- and 4*-AG100 came from a second series.
as §1

[5] = strain 1-AG112 (1′-AG112), ΔacrAB
[6] = strain 2-AG100 (2°-AG100), ΔacrAB
[7] = strain 2-AG112 (2′-AG112), ΔacrAB
[8] = strain 3-AG112 (3′-AG112), ΔacrAB
[9] = strain 1-AG100, acrAB+, read-out: MIC
[10] = strain 1-AG112 (1′-AG112), acrAB+, read-out: MIC
[11] = strain 2-AG112 (2′-AG112), acrAB+, read-out: MIC
[12] = strain 3*-AG100, acrAB+, read-out: MIC
[13] = strain 3-AG112 (3′-AG112), acrAB+, read-out: MIC
[14] = strain 4*-AG100, acrAB+, read-out: MIC
[15] = strain AG100, acrAB+, read-out: MIC
[16] = strain AG112 (Mar mutant), acrAB+
[17] = strain 2-AG100 (2°-AG100), acrAB+, read-out: MIC

In the case of `O=C(O)c1cn(C2CC2)c2cc(N3CCNCC3)c(F)cc2c1=O` [CIP, ciprofloxacin], the “Active efflux of ciprofloxacin upon deletion of AcrAB” value [1] was “completely aborted”, the “Active efflux of ciprofloxacin upon deletion of AcrAB” value ([1]; listed as cfx) was “completely abolished” and the MIC ([2]; strain 1-AG100, ΔacrAB) was 0.06 µg/mL (≈ 0.181 µM). For the same compound, the MIC [2, 5] was 0.03 µg/mL (≈ 0.0905 µM), the MIC [2, 6] was 0.06 µg/mL (≈ 0.181 µM) and the MIC [2, 7] was 0.03 µg/mL (≈ 0.0905 µM). For the same compound, the MIC ([2]; strain 3*-AG100, ΔacrAB) was 0.06 µg/mL (≈ 0.181 µM), the MIC [2, 8] was 0.03 µg/mL (≈ 0.0905 µM) and the MIC ([2]; strain 4*-AG100, ΔacrAB) was 0.125 µg/mL (≈ 0.377 µM). The MIC ([2]; strain AG100, ΔacrAB) was no more than 0.015 µg/mL, the MIC ([2]; strain AG112, ΔacrAB) was no more than 0.015 µg/mL and the “Time at which CIP accumulation reached a plateau” value [3] was no more than 5 min. The MIC [4, 9] was 0.25 µg/mL (≈ 0.754 µM), the MIC [4, 10] was 0.5 µg/mL (≈ 1.51 µM) and the MIC ([4]; strain 2-AG100 (2°-AG100), acrAB+) was 0.5 µg/mL (≈ 1.51 µM). It also gave an MIC [4, 11] of 2 µg/mL (≈ 6.04 µM), an MIC [4, 12] of 1 µg/mL (≈ 3.02 µM) and an MIC [4, 13] of 4 µg/mL (≈ 12.1 µM). The MIC [4, 14] was 2 µg/mL (≈ 6.04 µM), the MIC [4, 15] was no more than 0.015 µg/mL and the MIC [4, 16] was 0.06 µg/mL (≈ 0.181 µM).
In the case of `CN(C)[C@@H]1C(O)=C(C(N)=O)C(=O)[C@@]2(O)C(O)=C3C(=O)c4c(O)cccc4[C@@](C)(O)[C@H]3C[C@@H]12` [TET, tetracycline], the MIC ([2]; strain 1-AG100, ΔacrAB) was 1 µg/mL (≈ 2.25 µM), the MIC [2, 5] was 0.5 µg/mL (≈ 1.13 µM) and the MIC [2, 6] was 0.5 µg/mL (≈ 1.13 µM). It also gave an MIC [2, 7] of 1 µg/mL (≈ 2.25 µM), an MIC ([2]; strain 3*-AG100, ΔacrAB) of 1 µg/mL (≈ 2.25 µM) and an MIC [2, 8] of 0.5 µg/mL (≈ 1.13 µM). It also gave an MIC ([2]; strain 4*-AG100, ΔacrAB) of 1 µg/mL (≈ 2.25 µM), an MIC ([2]; strain AG100, ΔacrAB) of 0.5 µg/mL (≈ 1.13 µM) and an MIC ([2]; strain AG112, ΔacrAB) of 1 µg/mL (≈ 2.25 µM). For the same compound, the MIC [4, 9] was 2 µg/mL (≈ 4.5 µM), the MIC [4, 10] was 4 µg/mL (≈ 9 µM) and the MIC [4, 17] was 2 µg/mL (≈ 4.5 µM). For the same compound, the MIC [4, 11] was 16 µg/mL (≈ 36 µM), the MIC [4, 12] was 8 µg/mL (≈ 18 µM) and the MIC [4, 13] was 8 µg/mL (≈ 18 µM). For the same compound, the MIC [4, 14] was 8 µg/mL (≈ 18 µM), the MIC [4, 15] was 1 µg/mL (≈ 2.25 µM) and the MIC [4, 16] was 4 µg/mL (≈ 9 µM).
`O=C(N[C@H](CO)[C@H](O)c1ccc([N+](=O)[O-])cc1)C(Cl)Cl` [CML, chloramphenicol] gave an MIC ([2]; strain 1-AG100, ΔacrAB) of 1 µg/mL (≈ 3.09 µM), an MIC [2, 5] of 1 µg/mL (≈ 3.09 µM) and an MIC [2, 6] of 1 µg/mL (≈ 3.09 µM). For the same compound, the MIC [2, 7] was 1 µg/mL (≈ 3.09 µM), the MIC ([2]; strain 3*-AG100, ΔacrAB) was 1 µg/mL (≈ 3.09 µM) and the MIC [2, 8] was 1 µg/mL (≈ 3.09 µM). It also gave an MIC ([2]; strain 4*-AG100, ΔacrAB) of 1 µg/mL (≈ 3.09 µM), an MIC ([2]; strain AG100, ΔacrAB) of 1 µg/mL (≈ 3.09 µM) and an MIC ([2]; strain AG112, ΔacrAB) of 1 µg/mL (≈ 3.09 µM). It also gave an MIC [4, 9] of 4 µg/mL (≈ 12.4 µM), an MIC [4, 10] of 32 µg/mL (≈ 99 µM) and an MIC [4, 17] of 16 µg/mL (≈ 49.5 µM). The MIC [4, 11] was 64 µg/mL (≈ 198 µM), the MIC [4, 12] was 32 µg/mL (≈ 99 µM) and the MIC [4, 13] was 64 µg/mL (≈ 198 µM). For the same compound, the MIC [4, 14] was 64 µg/mL (≈ 198 µM), the MIC [4, 15] was 4 µg/mL (≈ 12.4 µM) and the MIC [4, 16] was 16 µg/mL (≈ 49.5 µM).
In the case of `C[C@@H]1CN(c2c(F)c(N)c3c(=O)c(C(=O)O)cn(C4CC4)c3c2F)C[C@H](C)N1` [SPX, sparfloxacin], the MIC ([2]; all ΔacrAB mutants, below detection) was less than 0.015 µg/mL, the MIC ([2]; strain 1-AG100, ΔacrAB) was no more than 0.015 µg/mL and the MIC [2, 5] was no more than 0.015 µg/mL. The MIC [2, 6] was no more than 0.015 µg/mL, the MIC [2, 7] was no more than 0.015 µg/mL and the MIC ([2]; strain 3*-AG100, ΔacrAB) was no more than 0.015 µg/mL. It also gave an MIC [2, 8] of no more than 0.015 µg/mL, an MIC ([2]; strain 4*-AG100, ΔacrAB) of no more than 0.015 µg/mL and an MIC ([2]; strain AG100, ΔacrAB) of no more than 0.015 µg/mL. For the same compound, the MIC ([2]; strain AG112, ΔacrAB) was no more than 0.015 µg/mL, the MIC [4, 9] was 0.125 µg/mL (≈ 0.319 µM) and the MIC [4, 10] was 0.25 µg/mL (≈ 0.637 µM). The MIC [4, 17] was 0.25 µg/mL (≈ 0.637 µM), the MIC [4, 11] was 1 µg/mL (≈ 2.55 µM) and the MIC [4, 12] was 0.5 µg/mL (≈ 1.27 µM). The MIC [4, 13] was 2 µg/mL (≈ 5.1 µM), the MIC [4, 14] was 2 µg/mL (≈ 5.1 µM) and the MIC [4, 15] was no more than 0.015 µg/mL. It also gave an MIC [4, 16] of 0.06 µg/mL (≈ 0.153 µM).
